Experimental data taken from US6770632B1, “Folypolyglutamyl synthetase gene transfer to enhance antifolate” (priority 1999, dated 2004).
Read-outs that look alike come from different tables or passages of the source.

What was measured:
[1] = test system: subcutaneous 9L/FPGS tumors; assay: Growth of subcutaneous 9L/FPGS tumors in nude mice; assay type: in vivo; conditions: after three weeks
Procedure: (§1) In Vivo Experiments: 10^5 9L or 9L/FPGS cells or a mixture of 8×10^5 9L+2×10^5 9L/FPGS cells in 200 μL DMEM were injected subcutaneously into the flanks of six week old female nude mice (NCr/Sed, nu/nu, 20 gm; Massachusetts General Hospital breeding colony). After 14 days, when the tumors had reached an average volume of 60 mm^3, the mice were randomly divided into experimental groups with five mice per group. Intraperitoneal injections of varying MTX or EDX doses dissolved in 200 μL 0.9% NaCl were administered either daily or every third day. Tumor size was measured weekly using calipers. Tumor volume was calculated as length×width×height, as described previously (Takamiya, Y., et al., Journal of Neuroscience Research 33:493-503 (1992)).

[2] = mouse, in vivo, 9 mg/kg; cited from earlier work
[3] = test system: cocultures of 9L/FPGS and 9L cells; assay: Bystander effect study, cocultures of 9L/FPGS and 9L cells; assay type: cell-based, rat
Procedure: For bystander effect studies, cells were plated in triplicate with varying combinations of 9L/FPGS and 9L cells such that the total number of cells was 8×10^5 per 10-cm-diameter plate. The same protocol of 4 hour cell adherence followed by 4 hour drug exposure, washes, growth in drug free medium for 3 days, and counting on a ZM coulter apparatus was then followed. […] Four mL conditioned medium+2 mL fresh medium were added to 10-cm-diameter plates containing 9L/BAG cells plated overnight (1000 cells/dish, with a clonogenic efficiency of approximately 20%). Six days later, the cells were fixed with 4% paraformaldehyde in PBS. Fixed cells were stained for LacZ by incubating overnight in a solution containing 35 mM potassium ferricyanide, 35 mM potassium ferrocyanide, 2 mM magnesium chloride, and 0.2% 5-bromo-4-chloro-3-indolyl-β-D galactoside (Xgal; Fisher Scientific Co.;Pittsburgh, Pa.) at pH=7.3 (Price, J., et al., Proceedings of the National Academy of Sciences USA 84:156-160 (1987)). The next day, blue colonies greater than 1 mm in diameter were counted.
However, a more quantitative approach is to generate a dose-response curve for nontransfected cells, transfected cells, and a coculture and to calculate the transmission efficiency (TE) for the coculture (Friedlos, F., et al., Journal of Medicinal Chemistry 40:1270-1275 (1997)). [formula]
The superscripts 0, N, and 100 designate the ED50 values for cultures containing 0, N, and 100% transfected cells.

[4] = test system: 9L/FPGS cells; conditions: rat, 24 h, 2 μM
Procedure: (§3) Thin Layer Chromatography of MTX Metabolites: 10^6 9L or 9L/FPGS cells were plated in 6-cm diameter dishes and allowed to adhere for 4 hours, after which cells were incubated overnight with 2 μM 3′, 5′, 7-[^3H] methotrexate (Moravek Biochemicals; Brea, Calif.). Cells were then trypsinized, centrifuged, resuspended in 300 μL deionized water, and sonicated for 45 seconds at half-maximal power. Sonicated cells were centrifuged briefly to remove cellular debris, after which protein concentration was calculated using the Bradford protein assay. Proteins were precipitated with 1 mL methanol at −20° C. for 2 hr. Precipitated proteins were removed by centrifugation at 20,000 g for 30 min, and the supernatant was then concentrated to 30 μL under a stream of N2 at 37° C. on a Meyer N-Evap Analytical Evaporator (Organomation Associates Inc., Northborough, Mass.). A 1 μL aliquot was scintillation counted—cpm were converted into moles of drug taken up by determining the cpm of a known quantity of [^3H] MTX. […] Plates were eluted with a chloroforrn-methanol-acetic acid mixture (2:2:1) containing 20 mg/mL cetyl trimethylammonium bromide (Sigma). Following elution, the plates were placed under ordinary fluorescent light for 2 days, after which 20 nmol unlabelled standards were visualized under long-wave ultraviolet light. Plates were run in duplicate and the average RF values of the standards were: MTX=0.66; MTX-G1=0.59; MTX-G2=0.44, MTX-G3=0.33; MTX-G4=0.27; MTX-G5=0.25. Regions corresponding to where standards migrated were marked in the sample lane, scraped individually into scintillation vials, and counted. The amount of each radioactive metabolite in a sample lane was determined as a percentage of the total radioactivity recovered from that sample lane, after subtraction of the background counts obtained from lanes lacking radioactive sample.

[5] = test system: 9L cells; conditions: rat, 24 h, 2 μM
Procedure: as §3

[6] = test system: 9L/FPGS cells; assay: Cell culture survival study, 9L/FPGS cells; assay type: cell-based, rat; conditions: for EC50: Rattus norvegicus, 9L/FPGS, read-out: ED50 (the source's name)
Procedure: (§2) Cell Culture Survival Studies: Cells were plated in triplicate at 8×10^5 cells per 10-cm-diameter plate, and were allowed to adhere for 4 hours, after which the medium was replaced with medium containing MTX or EDX. […] Drug-free medium was then added, and three days later the cells were trypsinized and counted on a model ZM Coulter apparatus. Dose-response curves were generated using Sigma Plot 3.0, which employs curve-fitting parameters based on the Marquardt-Levenberg method (Marquardt, D. W., Siam, J., J. Soc. Indust. Appl. Math 11:431-441 (1963)).

[7] = test system: subcutaneous 9L tumors; assay: Growth of subcutaneous 9L tumors in nude mice; assay type: in vivo; conditions: after three weeks
Procedure: as §1

[8] = test system: U87 cells; assay: Cell culture survival study, U87 cells; assay type: cell-based, human
Procedure: Cell Culture Survival Studies: Cells were plated in triplicate at 8×10^5 cells per 10-cm-diameter plate, and were allowed to adhere for 4 hours, after which the medium was replaced with medium containing MTX or EDX. After 4 hours drug exposure, the plates were washed three times with 4 mL PBS. Drug-free medium was then added, and three days later the cells were trypsinized and counted on a model ZM Coulter apparatus. Dose-response curves were generated using Sigma Plot 3.0, which employs curve-fitting parameters based on the Marquardt-Levenberg method (Marquardt, D. W., Siam, J., J. Soc. Indust. Appl. Math 11:431-441 (1963)).

[9] = in vivo, cited from earlier work
[10] = Maximum tolerated (nonlethal) dose in nude mice
[11] = test system: hepatoma cells; conditions: cited from earlier work
[12] = in vivo; conditions: nude, mouse, ip
[13] = nude mice, five consecutive days, previous studies (Inaba 1989); cited from earlier work
[14] = test system: 9L cells; assay: Cell culture survival study, 9L cells; assay type: cell-based, rat; conditions: for EC50: Rattus norvegicus, 9L, read-out: ED50 (the source's name)
Procedure: as §2

[15] = 4 h, 4 hrs drug exposure, curves of FIG. 1 (MTX) / FIG. 3a (EDX)

CN(Cc1cnc2nc(N)nc(N)c2n1)c1ccc(C(=O)N[C@@H](CCC(=O)O)C(=O)O)cc1 [MTX, Amethopterin]
fold growth of tumor volume ([1]; 9 mg/kg daily i.p.): 4 fold | fold growth of tumor volume ([1]; 9 mg/kg every third day i.p.): 9 fold | peak plasma level [2]: 0.03 mM | EC50 ([3]; Rattus norvegicus, coculture 20% 9L/FPGS + 80% 9L, 4 hrs drug exposure, FIG. 4a, read-out: ED50 (the source's name)): 1400 nM | transmission efficiency (TE) ([3]; cocultures containing 20% 9L/FPGS cells, 4 hour pulses): 49.9% | POLYGLUTAMATE DISTRIBUTION (percentages of total sample lane radioactivity) [4]: 10% | TOTAL MTX ACCUMULATED [4]: 12.7 pmol/mg protein | total radioactivity associated with the higher order polyglutamates MTX-G4 and G5 [4]: 31% | TOTAL MTX ACCUMULATED [5]: 6.3 pmol/mg protein | total radioactivity associated with the higher order polyglutamates MTX-G4 and G5 [5]: 14% | range of concentrations with statistically significant difference in survival between 9L and 9L/FPGS ([6]; 4 hour pulses): 100 fold | difference in ED50 between 9L and 9L/FPGS ([6]; 4 hour pulses, FIG. 1 / FIG. 3A): 29 fold | EC50 ([6]; 4 h, 4 hrs drug exposure, bystander experiment FIG. 4a (MTX) / 4b (EDX)): 93 nM | EC50 [6, 15]: 101 nM | EC50 ([6]; 72 h, 72 hrs drug exposure): 40 nM | survival ([6]; two G418-resistant clones (one designated 9L/FPGS), 0.3 μM for 4 hours, 3 days drug-free medium): approximately 40% | fold growth of tumor volume ([7]; 9 mg/kg daily i.p.): 10 fold | fold growth of tumor volume ([7]; 9 mg/kg every third day i.p.): 26 fold | ED50 of U87 higher than that of 9L ([8]; 4 hour pulse): over 10 fold | EC50 ([8]; Homo sapiens, U-87 MG, U87, 4 hrs drug exposure, 3 days drug-free, read-out: ED50 (the source's name)): 30000 nM | peak plasma level ([9]; 50 mg/kg): 0.1 mM | dose at which toxic side effects are experienced [9]: 50 mg/kg | maximum nonlethal dose [10]: 9 mg/kg | total intracellular polyglutamate pool leaving the cell as monoglutamylated MTX [11]: 43% | MTD [12]: 9 mg/kg/day | maximum tolerated (nonlethal) dose (MTD) [13]: 15 mg/kg/day | survival ([14]; 9L cells, 0.3 μM for 4 hours, 3 days drug-free medium): ~90% | EC50 ([14]; 4 h, 4 hrs drug exposure, bystander experiment FIG. 4a): 2700 nM | EC50 [14, 15]: 2900 nM | EC50 ([14]; 72 h, 72 hrs drug exposure): 40 nM
